Test results from patent US10081635B2, “Substituted N-(pyrrolidine-3-yl)-7H-pyrrolo[2,3-D]pyrimidine-4-amine as janus kinase inhibitor” (YANG JI CHEMICAL CO., LTD., priority 2014, dated 2018).

How the values were obtained:
Format in all cases: biochemical
Human TYK2 = Human TYK2 (Homo sapiens (Human), UniProt P29597); assay: In vitro kinase inhibition test, TYK2 (33P-ATP filter scintillation); details: compound at 1 uM; read-out: TYK2 kinase-phosphorylation inhibitory level (% inhibition)
Protocol: (§1) 1. In Vitro Kinase Inhibition Test
(§2) Kinases used were human-derived JAK1, JAK2, JAK3, and TYK2 (Millipore, Germany). Each of these kinases was diluted with a suitable buffer solution as described below, and then mixed with reagents.
(§3) 3-morpholinopropane-1-sulfonic acid (MOPS) and EDTA were dissolved in distilled water at a concentration of 20 mM and 1 mM, respectively, and 100 uL of β-mercaptoethanol, 10 uL of Brij-35™, 5 mL of glycerol, and 100 mg of bovine serum albumin (BSA), each per 100 mL of the solution, were added to the solution, thereby preparing a JAK2, JAK3, and TYK2 dilution buffer solution.
(§4) Each compound was dissolved in a 100% DMSO solution at a 50 uM concentration. This solution was reacted with reagents in wells on a 96-well plate to reach a final concentration of 1 uM. Detailed experimental methods for each kinase are described below.
(§5) After reaction for about 40 minutes at room temperature, the reaction was stopped by adding 5 uL of a 3% (v/v) phosphoric acid solution.
(§6) In Tables 5 and 6, the numbers in the “Example” column, which are identification numbers of the examples, indicate the compounds synthesized in the corresponding examples, the values in the “JAK1”, “JAK2”, “JAK3”, and “TYK2” columns represent kinase-phosphorylation inhibitory levels as a percentage (%) of the compounds synthesized in the corresponding examples at a 1 uM concentration. In Tables 5 and 6, negative values substantially indicate no inhibitory effect.
(§7) The inhibitory levels (% inhibition) represent a percentage of reduction in phosphorylation activity in each test group with respect to the phosphorylation activity of a corresponding kinase in a negative control group lacking any of the compounds synthesized in the examples. % inhibition=[(Scintillation value of Test compound non-treatment group−Scintillation value of Test compound treatment group)/(Scintillation value of Test compound non-treatment group)]×100

Human JAK2 = Human JAK2 (Homo sapiens (Human), UniProt O60674); assay: In vitro kinase inhibition test, JAK2 (33P-ATP filter scintillation); details: compound at 1 uM; read-out: JAK2 kinase-phosphorylation inhibitory level (% inhibition)
Sequence of Human JAK2 (O60674 whole entry): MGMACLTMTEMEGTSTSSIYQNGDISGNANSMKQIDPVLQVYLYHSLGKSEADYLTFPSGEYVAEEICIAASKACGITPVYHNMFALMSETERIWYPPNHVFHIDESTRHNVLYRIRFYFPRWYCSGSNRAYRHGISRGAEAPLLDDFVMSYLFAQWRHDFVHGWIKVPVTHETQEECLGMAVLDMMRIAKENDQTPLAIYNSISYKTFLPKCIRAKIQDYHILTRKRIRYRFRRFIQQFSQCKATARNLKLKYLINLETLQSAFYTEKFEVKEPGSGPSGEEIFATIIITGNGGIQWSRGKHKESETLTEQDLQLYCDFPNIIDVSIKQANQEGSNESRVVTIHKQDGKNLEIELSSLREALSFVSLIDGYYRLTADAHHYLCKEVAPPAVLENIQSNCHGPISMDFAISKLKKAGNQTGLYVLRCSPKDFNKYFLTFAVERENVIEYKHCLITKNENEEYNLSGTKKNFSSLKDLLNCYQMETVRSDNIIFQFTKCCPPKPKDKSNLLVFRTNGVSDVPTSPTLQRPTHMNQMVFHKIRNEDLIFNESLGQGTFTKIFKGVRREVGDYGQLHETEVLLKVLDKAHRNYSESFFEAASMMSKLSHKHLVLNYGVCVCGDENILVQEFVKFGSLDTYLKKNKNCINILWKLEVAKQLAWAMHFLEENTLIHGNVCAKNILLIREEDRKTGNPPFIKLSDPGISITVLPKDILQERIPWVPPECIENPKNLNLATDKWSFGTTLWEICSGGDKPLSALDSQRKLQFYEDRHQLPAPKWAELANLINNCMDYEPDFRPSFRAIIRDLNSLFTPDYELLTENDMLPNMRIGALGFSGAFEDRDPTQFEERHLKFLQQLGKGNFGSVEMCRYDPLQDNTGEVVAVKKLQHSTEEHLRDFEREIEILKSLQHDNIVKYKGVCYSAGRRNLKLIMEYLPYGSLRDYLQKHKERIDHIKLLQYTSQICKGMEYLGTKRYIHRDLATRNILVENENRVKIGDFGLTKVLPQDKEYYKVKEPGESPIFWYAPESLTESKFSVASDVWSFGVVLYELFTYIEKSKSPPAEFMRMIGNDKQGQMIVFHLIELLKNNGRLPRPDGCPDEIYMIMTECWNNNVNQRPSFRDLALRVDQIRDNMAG
Protocol: as §1, §2, §3, §4, §5, §6, §7

Human JAK1 = Human JAK1 (Homo sapiens (Human), UniProt P23458); assay: In vitro kinase inhibition test, JAK1 (33P-ATP filter scintillation); details: compound at 1 uM; read-out: JAK1 kinase-phosphorylation inhibitory level (% inhibition)
Sequence of Human JAK1 (P23458 whole entry): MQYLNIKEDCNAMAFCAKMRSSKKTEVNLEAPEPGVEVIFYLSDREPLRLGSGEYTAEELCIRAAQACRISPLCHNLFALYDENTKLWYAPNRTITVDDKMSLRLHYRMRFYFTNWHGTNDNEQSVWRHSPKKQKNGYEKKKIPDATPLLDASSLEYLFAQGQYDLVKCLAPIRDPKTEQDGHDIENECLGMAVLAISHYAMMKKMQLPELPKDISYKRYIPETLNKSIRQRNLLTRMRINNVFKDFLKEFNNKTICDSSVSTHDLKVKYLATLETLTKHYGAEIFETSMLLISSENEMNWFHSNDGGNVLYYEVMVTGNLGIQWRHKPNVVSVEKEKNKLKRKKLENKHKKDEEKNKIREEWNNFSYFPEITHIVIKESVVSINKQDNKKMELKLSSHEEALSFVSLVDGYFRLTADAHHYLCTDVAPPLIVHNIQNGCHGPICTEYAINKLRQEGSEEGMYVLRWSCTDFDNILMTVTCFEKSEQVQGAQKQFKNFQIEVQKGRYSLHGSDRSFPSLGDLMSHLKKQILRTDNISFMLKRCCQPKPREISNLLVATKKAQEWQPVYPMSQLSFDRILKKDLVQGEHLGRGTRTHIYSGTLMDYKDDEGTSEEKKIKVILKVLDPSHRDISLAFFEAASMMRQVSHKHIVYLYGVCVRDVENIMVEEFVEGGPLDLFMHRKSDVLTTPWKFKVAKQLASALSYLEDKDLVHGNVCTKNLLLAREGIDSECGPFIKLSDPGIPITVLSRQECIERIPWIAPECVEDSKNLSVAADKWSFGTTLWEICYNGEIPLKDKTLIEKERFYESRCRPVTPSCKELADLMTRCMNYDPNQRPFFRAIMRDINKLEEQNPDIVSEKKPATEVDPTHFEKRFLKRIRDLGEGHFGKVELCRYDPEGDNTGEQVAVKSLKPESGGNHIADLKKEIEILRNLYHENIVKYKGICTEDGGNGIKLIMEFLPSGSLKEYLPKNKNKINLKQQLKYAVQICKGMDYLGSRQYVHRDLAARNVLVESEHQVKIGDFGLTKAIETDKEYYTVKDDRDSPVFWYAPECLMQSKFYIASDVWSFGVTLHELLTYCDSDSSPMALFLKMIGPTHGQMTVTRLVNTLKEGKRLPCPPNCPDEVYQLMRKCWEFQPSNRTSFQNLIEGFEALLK
Protocol: as §1, §2
Tris(hydroxymethyl)aminomethane (TRIS) and ethylenediaminetetraacetic acid (EDTA) were dissolved in distilled water at a concentration of 20 mM and 0.2 mM, respectively, and 100 uL of β-mercaptoethanol, 10 uL of Brij-35™, and 5 mL of glycerol, each per 100 mL of the solution, were added to the solution, thereby preparing a JAK1 dilution buffer solution.
as §4
After reaction for about 40 minutes at room temperature, the reaction was stopped by adding 5 uL of a 3% (v/v) phosphoric acid solution. […] The methanol drying is a drying process using an azeotropic effect, wherein methanol is added into an aqueous solution for drying.
as §6, §7

Human JAK3 = Human JAK3 (Homo sapiens (Human), UniProt P52333); assay: In vitro kinase inhibition test, JAK3 (33P-ATP filter scintillation); details: compound at 1 uM; read-out: JAK3 kinase-phosphorylation inhibitory level (% inhibition)
Sequence of Human JAK3 (P52333 whole entry): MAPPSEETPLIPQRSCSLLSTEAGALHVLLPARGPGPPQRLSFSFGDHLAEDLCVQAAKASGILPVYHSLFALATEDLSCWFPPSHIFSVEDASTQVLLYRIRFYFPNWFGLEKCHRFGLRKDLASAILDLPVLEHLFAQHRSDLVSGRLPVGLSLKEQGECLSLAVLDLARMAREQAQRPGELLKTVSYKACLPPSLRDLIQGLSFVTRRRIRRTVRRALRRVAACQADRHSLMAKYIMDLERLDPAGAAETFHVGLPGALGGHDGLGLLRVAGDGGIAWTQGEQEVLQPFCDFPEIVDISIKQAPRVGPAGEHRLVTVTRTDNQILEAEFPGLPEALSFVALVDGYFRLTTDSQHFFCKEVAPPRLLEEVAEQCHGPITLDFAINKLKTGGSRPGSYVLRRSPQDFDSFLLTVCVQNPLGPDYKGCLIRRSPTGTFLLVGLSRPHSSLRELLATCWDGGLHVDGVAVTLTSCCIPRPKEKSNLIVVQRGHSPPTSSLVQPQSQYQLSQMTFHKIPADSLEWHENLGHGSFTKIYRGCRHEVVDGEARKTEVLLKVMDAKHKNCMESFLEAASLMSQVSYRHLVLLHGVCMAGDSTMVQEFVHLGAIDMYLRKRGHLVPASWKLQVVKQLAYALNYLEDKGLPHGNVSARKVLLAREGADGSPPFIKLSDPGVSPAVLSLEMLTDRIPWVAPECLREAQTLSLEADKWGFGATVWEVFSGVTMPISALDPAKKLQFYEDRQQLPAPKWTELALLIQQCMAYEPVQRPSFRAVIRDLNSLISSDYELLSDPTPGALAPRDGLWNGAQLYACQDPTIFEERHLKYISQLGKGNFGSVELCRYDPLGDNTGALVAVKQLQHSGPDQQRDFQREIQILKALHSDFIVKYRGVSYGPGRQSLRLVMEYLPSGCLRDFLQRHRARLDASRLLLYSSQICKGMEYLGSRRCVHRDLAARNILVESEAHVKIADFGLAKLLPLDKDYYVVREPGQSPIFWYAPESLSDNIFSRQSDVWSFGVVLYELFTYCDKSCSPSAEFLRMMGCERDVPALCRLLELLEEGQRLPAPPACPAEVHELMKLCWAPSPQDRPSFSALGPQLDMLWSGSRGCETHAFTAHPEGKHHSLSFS
Protocol: as §1, §2, §3, §4, §5, §6, §7

Sequence of Human TYK2 (P29597 whole entry): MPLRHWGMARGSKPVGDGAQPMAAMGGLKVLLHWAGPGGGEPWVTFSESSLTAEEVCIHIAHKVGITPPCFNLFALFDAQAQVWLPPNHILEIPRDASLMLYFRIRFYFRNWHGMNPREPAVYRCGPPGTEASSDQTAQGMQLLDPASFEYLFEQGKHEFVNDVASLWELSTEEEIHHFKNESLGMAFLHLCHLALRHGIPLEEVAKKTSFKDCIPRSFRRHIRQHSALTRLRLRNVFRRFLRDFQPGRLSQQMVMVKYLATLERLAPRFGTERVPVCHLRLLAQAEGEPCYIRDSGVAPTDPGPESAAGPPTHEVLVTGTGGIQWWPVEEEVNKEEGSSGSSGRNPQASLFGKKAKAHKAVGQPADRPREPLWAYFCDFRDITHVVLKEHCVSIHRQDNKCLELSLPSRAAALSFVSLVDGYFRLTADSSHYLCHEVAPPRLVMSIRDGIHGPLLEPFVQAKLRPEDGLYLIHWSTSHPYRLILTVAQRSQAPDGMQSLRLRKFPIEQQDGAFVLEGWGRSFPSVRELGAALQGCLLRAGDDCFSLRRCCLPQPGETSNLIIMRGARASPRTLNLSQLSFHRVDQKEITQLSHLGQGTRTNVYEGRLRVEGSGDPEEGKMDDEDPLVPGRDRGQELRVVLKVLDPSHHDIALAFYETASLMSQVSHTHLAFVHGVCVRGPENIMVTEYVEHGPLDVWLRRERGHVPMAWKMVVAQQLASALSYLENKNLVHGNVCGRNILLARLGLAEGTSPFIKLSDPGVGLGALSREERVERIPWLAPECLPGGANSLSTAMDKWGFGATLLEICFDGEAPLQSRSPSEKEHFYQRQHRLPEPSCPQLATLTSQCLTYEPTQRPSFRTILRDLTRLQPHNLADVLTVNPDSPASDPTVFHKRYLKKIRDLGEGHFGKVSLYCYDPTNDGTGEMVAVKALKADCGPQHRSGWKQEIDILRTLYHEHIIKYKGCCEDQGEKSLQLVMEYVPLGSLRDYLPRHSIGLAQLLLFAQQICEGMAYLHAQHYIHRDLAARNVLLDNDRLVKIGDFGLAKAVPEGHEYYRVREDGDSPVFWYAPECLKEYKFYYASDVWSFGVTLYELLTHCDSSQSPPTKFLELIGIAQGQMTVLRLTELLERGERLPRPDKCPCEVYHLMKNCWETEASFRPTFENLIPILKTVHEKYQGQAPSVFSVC

CN(c1ncnc2[nH]ccc12)[C@H]1CN(S(=O)(=O)c2cccc([N+](=O)[O-])c2)CC12CC2 [Example 44, (R)-N-methyl-N-(5-((3-nitrophenyl)sulfonyl)-5-azaspiro[2.4]heptan-7-yl)-7H-pyrrolo[2,3-d]pyrimidin-4-amine]
inhibition at 1 µM (Human TYK2): 98%
inhibition at 1 µM (Human JAK2): 96%
inhibition at 1 µM (Human JAK1): 100%
inhibition at 1 µM (Human JAK3): 96%

CN(c1ncnc2[nH]ccc12)[C@H]1CN(C(=O)Nc2cc(Cl)ccc2Cl)CC12CC2 [Example 27, (R)-N-(2,5-dichlorophenyl)-7-(methyl(7H-pyrrolo[2,3-d]pyrimidin-4-yl)amino)-5-azaspiro[2.4]heptane-5-carboxamide]
inhibition at 1 µM (Human TYK2): 27%
inhibition at 1 µM (Human JAK2): -1%
inhibition at 1 µM (Human JAK1): 91%
inhibition at 1 µM (Human JAK3): 17%

CN(c1ncnc2[nH]ccc12)[C@H]1CN(C(=O)Nc2ccccc2-c2ccccc2)CC12CC2 [Example 30, (R)-N-([1,1′-biphenyl]-2-yl)-7-(methyl(7H-pyrrolo[2,3-d]pyrimidin-4-yl)amino)-5-azaspiro[2.4]heptane-5-carboxamide]
inhibition at 1 µM (Human TYK2): 27%
inhibition at 1 µM (Human JAK2): -11%
inhibition at 1 µM (Human JAK1): 80%
inhibition at 1 µM (Human JAK3): 14%

CN(c1ncnc2[nH]ccc12)[C@@H]1CN(S(=O)(=O)c2ccccc2)CC12CC2 [Example 72, (S)-N-methyl-N-(5-(phenylsulfonyl)-5-azaspiro[2.4]heptan-7-yl)-7H-pyrrolo[2,3-d]pyrimidin-4-amine]
inhibition at 1 µM (Human TYK2): 28%
inhibition at 1 µM (Human JAK2): 10%
inhibition at 1 µM (Human JAK1): 55%
inhibition at 1 µM (Human JAK3): -1%

CN(c1ncnc2[nH]ccc12)[C@H]1CN(S(=O)(=O)c2ccccc2)CC12CC2 [Example 36, (R)-N-methyl-N-(5-(phenylsulfonyl)-5-azaspiro[2.4]heptan-7-yl)-7H-pyrrolo[2,3-d]pyrimidin-4-amine]
inhibition at 1 µM (Human TYK2): 91%
inhibition at 1 µM (Human JAK2): 90%
inhibition at 1 µM (Human JAK1): 97%
inhibition at 1 µM (Human JAK3): 52%

CN(c1ncnc2[nH]ccc12)[C@H]1CN(S(=O)(=O)C(F)(F)F)CC12CC2 [Example 32, (R)-N-methyl-N-(5-((trifluoromethyl)sulfonyl)-5-azaspiro[2.4]heptan-7-yl)-7H-pyrrolo[2,3-d]pyrimidin-4-amine]
inhibition at 1 µM (Human TYK2): 86%
inhibition at 1 µM (Human JAK2): 68%
inhibition at 1 µM (Human JAK1): 97%
inhibition at 1 µM (Human JAK3): 59%

CN(c1ncnc2[nH]ccc12)[C@H]1CN(C(=O)c2ccncc2)CC12CC2 [Example 14, (R)-(7-(methyl(7H-pyrrolo[2,3-d]pyrimidin-4-yl)amino)-5-azaspiro[2.4]heptan-5-yl)(pyridin-4-yl)methanone]
inhibition at 1 µM (Human TYK2): 15%
inhibition at 1 µM (Human JAK2): -14%
inhibition at 1 µM (Human JAK1): 84%
inhibition at 1 µM (Human JAK3): 12%

CCN1C[C@H](N(C)c2ncnc3[nH]ccc23)C2(CC2)C1 [Example 73, (R)-N-(5-ethyl-5-azaspiro[2.4]heptan-7-yl)-N-methyl-7H-pyrrolo[2,3-d]pyrimidin-4-amine]
inhibition at 1 µM (Human TYK2): -7%
inhibition at 1 µM (Human JAK2): -6%
inhibition at 1 µM (Human JAK1): 42%
inhibition at 1 µM (Human JAK3): 1%

CN(c1ncnc2[nH]ccc12)[C@H]1CN(S(=O)(=O)c2cccc(F)c2)CC12CC2 [Example 38, (R)-N-(5-((3-fluorophenyl)sulfonyl)-5-azaspiro[2.4]heptan-7-yl)-N-methyl-7H-pyrrolo[2,3-d]pyrimidin-4-amine]
inhibition at 1 µM (Human TYK2): 97%
inhibition at 1 µM (Human JAK2): 97%
inhibition at 1 µM (Human JAK1): 100%
inhibition at 1 µM (Human JAK3): 84%

CN(c1ncnc2[nH]ccc12)[C@H]1CN(S(=O)(=O)c2ccc([N+](=O)[O-])cc2)CC12CC2 [Example 45, (R)-N-methyl-N-(5-((4-nitrophenyl)sulfonyl)-5-azaspiro[2.4]heptan-7-yl)-7H-pyrrolo[2,3-d]pyrimidin-4-amine]
inhibition at 1 µM (Human TYK2): 88%
inhibition at 1 µM (Human JAK2): 84%
inhibition at 1 µM (Human JAK1): 100%
inhibition at 1 µM (Human JAK3): 60%

CN(c1ncnc2[nH]ccc12)[C@H]1CN(S(=O)(=O)c2ccccc2[N+](=O)[O-])CC12CC2 [Example 43, (R)-N-methyl-N-(5-((2-nitrophenyl)sulfonyl)-5-azaspiro[2.4]heptan-7-yl)-7H-pyrrolo[2,3-d]pyrimidin-4-amine]
inhibition at 1 µM (Human TYK2): 78%
inhibition at 1 µM (Human JAK2): 70%
inhibition at 1 µM (Human JAK1): 97%
inhibition at 1 µM (Human JAK3): 75%

CN(c1ncnc2[nH]ccc12)[C@H]1CN(S(=O)(=O)N2CCOCC2)CC12CC2 [Example 51, (R)-N-methyl-N-(5-(morpholinosulfonyl)-5-azaspiro[2.4]heptan-7-yl)-7H-pyrrolo[2,3-d]pyrimidin-4-amine]
inhibition at 1 µM (Human TYK2): 69%
inhibition at 1 µM (Human JAK2): 60%
inhibition at 1 µM (Human JAK1): 97%
inhibition at 1 µM (Human JAK3): 49%

CN(c1ncnc2[nH]ccc12)C1CN(C(=O)CN=[N+]=[N-])CC12CC2 (stereo not drawn) [Example 54, 2-azido-1-(7-(methyl(7H-pyrrolo[2,3-d]pyrimidin-4-yl)amino)-5-azaspiro[2.4]heptan-5-yl)ethan-1-one]
inhibition at 1 µM (Human TYK2): 72%
inhibition at 1 µM (Human JAK2): 60%
inhibition at 1 µM (Human JAK1): 94%
inhibition at 1 µM (Human JAK3): 73%

CN(c1ncnc2[nH]ccc12)[C@H]1CN(C(=S)Nc2cc(C(F)(F)F)cc(C(F)(F)F)c2)CC12CC2 [Example 31, (R)-N-(3,5-bis(trifluoromethyl)phenyl)-7-(methyl(7H-pyrrolo[2,3-d]pyrimidin-4-yl)amino)-5-azaspiro[2.4]heptane-5-carbothioamide]
inhibition at 1 µM (Human TYK2): 1%
inhibition at 1 µM (Human JAK2): -26%
inhibition at 1 µM (Human JAK1): 62%
inhibition at 1 µM (Human JAK3): 13%

CN(c1ncnc2[nH]ccc12)[C@H]1CN(S(=O)(=O)c2ccccc2F)CC12CC2 [Example 37, (R)-N-(5-((2-fluorophenyl)sulfonyl)-5-azaspiro[2.4]heptan-7-yl)-N-methyl-7H-pyrrolo[2,3-d]pyrimidin-4-amine]
inhibition at 1 µM (Human TYK2): 90%
inhibition at 1 µM (Human JAK2): 84%
inhibition at 1 µM (Human JAK1): 98%
inhibition at 1 µM (Human JAK3): 61%

CNC(=O)CC(=O)N1CC(N(C)c2ncnc3[nH]ccc23)C2(CC2)C1 (stereo not drawn) [Example 57, N-methyl-3-(7-(methyl(7H-pyrrolo[2,3-d]pyrimidin-4-yl)amino)-5-azaspiro[2.4]heptan-5-yl)-3-oxopropanamide]
inhibition at 1 µM (Human TYK2): 11%
inhibition at 1 µM (Human JAK2): 7%
inhibition at 1 µM (Human JAK1): 55%
inhibition at 1 µM (Human JAK3): -9%

CC(=O)NCC(=O)N1CC(N(C)c2ncnc3[nH]ccc23)C2(CC2)C1 (stereo not drawn) [Example 56, N-(2-(7-(methyl(7H-pyrrolo[2,3-d]pyrimidin-4-yl)amino)-5-azaspiro[2.4]heptan-5-yl)-2-oxoethyl)acetamide]
inhibition at 1 µM (Human TYK2): -10%
inhibition at 1 µM (Human JAK2): -37%
inhibition at 1 µM (Human JAK1): 9%
inhibition at 1 µM (Human JAK3): 9%

CN(c1ncnc2[nH]ccc12)[C@H]1CN(S(=O)(=O)c2ccccc2C#N)CC12CC2 [Example 40, (R)-2-((7-(methyl(7H-pyrrolo[2,3-d]pyrimidin-4-yl)amino)-5-azaspiro[2.4]heptan-5-yl)sulfonyl)benzonitrile]
inhibition at 1 µM (Human TYK2): 72%
inhibition at 1 µM (Human JAK2): 64%
inhibition at 1 µM (Human JAK1): 94%
inhibition at 1 µM (Human JAK3): 47%

CN(c1ncnc2[nH]ccc12)[C@H]1CN(C(=O)CN=[N+]=[N-])CC12CC2 [Example 4, (R)-2-azido-1-(7-(methyl(7H-pyrrolo[2,3-d]pyrimidin-4-yl)amino)-5-azaspiro[2.4]heptan-5-yl)ethan-1-one]
inhibition at 1 µM (Human TYK2): 78%
inhibition at 1 µM (Human JAK2): 72%
inhibition at 1 µM (Human JAK1): 95%
inhibition at 1 µM (Human JAK3): 57%

CN(c1ncnc2[nH]ccc12)[C@H]1CN(C(=O)c2cccc(C#N)c2)CC12CC2 [Example 15, (R)-3-(7-(methyl(7H-pyrrolo[2,3-d]pyrimidin-4-yl)amino)-5-azaspiro[2.4]heptane-5-carbonyl)benzonitrile]
inhibition at 1 µM (Human TYK2): 43%
inhibition at 1 µM (Human JAK2): -15%
inhibition at 1 µM (Human JAK1): 76%
inhibition at 1 µM (Human JAK3): 13%

CNC(=O)CC(=O)N1C[C@@H](N(C)c2ncnc3[nH]ccc23)C2(CC2)C1 [Example 67, (S)-N-methyl-3-(7-(methyl(7H-pyrrolo[2,3-d]pyrimidin-4-yl)amino)-5-azaspiro[2.4]heptan-5-yl)-3-oxopropanamide]
inhibition at 1 µM (Human TYK2): -4%
inhibition at 1 µM (Human JAK2): -7%
inhibition at 1 µM (Human JAK1): 5%
inhibition at 1 µM (Human JAK3): 0%
